This passage reports relative viability results from the supplement of paper PMC10307832.

Common to all, as to assay: relative viability (nuclei count vs DMSO), 5 days (fraction); higher = more cells survive
Compound in the assay “FH535 + Navitoclax”: CC1=C(C=CC(=C1)[N+](=O)[O-])NS(=O)(=O)C2=C(C=CC(=C2)Cl)Cl [FH535] + CC1(C)CCC(c2ccc(Cl)cc2)=C(CN2CCN(c3ccc(C(=O)NS(=O)(=O)c4ccc(N[C@H](CCN5CCOCC5)CSc5ccccc5)c(S(=O)(=O)C(F)(F)F)c4)cc3)CC2)C1 [Navitoclax] (partner 0.5 µM)
A digest of the protocol:
(§1)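 Cells from lung cancer lines were seeded into 1536-well plates and, one day later, dosed by pin tool. Treatments were either a single drug or a fixed dose of an anchor drug with five library-drug doses (not always all listed) in √10 steps. After 5 days, nuclei were stained in a one-step fixation (final 0.05% Triton X-100, 1% formaldehyde, 1 ug/ml Hoechst) and counted on 4× images, and relative viability is the treated-to-vehicle nuclei ratio, as the median of duplicate plates.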

Compound in the assay “FH535 + Trametinib”: CC1=C(C=CC(=C1)[N+](=O)[O-])NS(=O)(=O)C2=C(C=CC(=C2)Cl)Cl [FH535] + CC(=O)Nc1cccc(-n2c(=O)n(C3CC3)c(=O)c3c(Nc4ccc(I)cc4F)n(C)c(=O)c(C)c32)c1 [Trametinib] (partner 0.02 µM)
Summed up:
as §1

Compound in the assay “FH535 + Foretinib”: CC1=C(C=CC(=C1)[N+](=O)[O-])NS(=O)(=O)C2=C(C=CC(=C2)Cl)Cl [FH535] + COc1cc2c(Oc3ccc(NC(=O)C4(C(=O)Nc5ccc(F)cc5)CC4)cc3F)ccnc2cc1OCCCN1CCOCC1 [Foretinib] (partner 0.25 µM)
Summed up:
as §1

Compound in the assay “FH535 + Dasatinib”: CC1=C(C=CC(=C1)[N+](=O)[O-])NS(=O)(=O)C2=C(C=CC(=C2)Cl)Cl [FH535] + Cc1nc(Nc2ncc(C(=O)Nc3c(C)cccc3Cl)s2)cc(N2CCN(CCO)CC2)n1 [Dasatinib] (partner 0.075 µM)
A digest of the protocol: as §1

Compound in the assay “FH535 + Lapatinib”: CC1=C(C=CC(=C1)[N+](=O)[O-])NS(=O)(=O)C2=C(C=CC(=C2)Cl)Cl [FH535] + CS(=O)(=O)CCNCc1ccc(-c2ccc3ncnc(Nc4ccc(OCc5cccc(F)c5)c(Cl)c4)c3c2)o1 [Lapatinib] (partner 2 µM)
Summed up:
as §1

As to 201T, the relative viability in the assay with FH535 + Navitoclax (first compound 0.04 µM) is 1.2; with FH535 + Navitoclax (first compound 0.1265 µM), 1.19; with FH535 + Navitoclax (first compound 0.4 µM), 1.18; in the assay with FH535 + Navitoclax (first compound 1.265 µM) it was 1.16; with FH535 + Trametinib (first compound 0.04 µM), 0.718; with FH535 + Trametinib (first compound 0.1265 µM), 0.72. The relative viability came to 0.69 with FH535 + Trametinib (first compound 0.4 µM); 0.562 with FH535 + Trametinib (first compound 1.265 µM); 0.987 with FH535 + Foretinib (first compound 0.04 µM); 1.15 with FH535 + Foretinib (first compound 0.1265 µM); 1.11 with FH535 + Foretinib (first compound 0.4 µM); 1.02 with FH535 + Foretinib (first compound 1.265 µM). Further, the relative viability with FH535 + Dasatinib (first compound 0.04 µM) worked out at 0.555; with FH535 + Dasatinib (first compound 0.1265 µM), 0.568; in the assay with FH535 + Dasatinib (first compound 0.4 µM), 0.437; in the assay with FH535 + Dasatinib (first compound 1.265 µM), 0.442; in the assay with FH535 + Lapatinib (first compound 0.04 µM) it was 1.01; with FH535 + Lapatinib (first compound 0.1265 µM) it was 0.897. Further, the relative viability in the assay with FH535 + Lapatinib (first compound 0.4 µM) stood at 0.971; in the assay with FH535 + Lapatinib (first compound 1.265 µM), 0.978.

Regarding A-427, the relative viability with FH535 + Navitoclax (first compound 0.04 µM) was found to be 0.968; in the assay with FH535 + Navitoclax (first compound 0.1265 µM), 0.928; in the assay with FH535 + Navitoclax (first compound 0.4 µM) it was 0.839; in the assay with FH535 + Navitoclax (first compound 1.265 µM), 0.865; in the assay with FH535 + Trametinib (first compound 0.04 µM), 0.712; with FH535 + Trametinib (first compound 0.1265 µM), 0.752. For the same cell line, the relative viability stood at 0.675 in the assay with FH535 + Trametinib (first compound 0.4 µM); 0.61 with FH535 + Trametinib (first compound 1.265 µM); 1.06 in the assay with FH535 + Foretinib (first compound 0.04 µM); 0.965 in the assay with FH535 + Foretinib (first compound 0.1265 µM); 1.04 in the assay with FH535 + Foretinib (first compound 0.4 µM); 0.977 with FH535 + Foretinib (first compound 1.265 µM). In addition, the relative viability in the assay with FH535 + Dasatinib (first compound 0.04 µM) stood at 0.54; with FH535 + Dasatinib (first compound 0.1265 µM) it was 0.826; with FH535 + Dasatinib (first compound 0.4 µM) it was 0.657; with FH535 + Dasatinib (first compound 1.265 µM), 0.564; with FH535 + Lapatinib (first compound 0.04 µM) it was 0.995; with FH535 + Lapatinib (first compound 0.1265 µM) it was 1.03. For the same cell line, the relative viability was determined as 0.962 with FH535 + Lapatinib (first compound 0.4 µM) and 0.99 with FH535 + Lapatinib (first compound 1.265 µM).

ABC-1: the relative viability was 1.04 in the assay with FH535 + Foretinib (first compound 0.04 µM); 0.849 in the assay with FH535 + Foretinib (first compound 0.1265 µM); 0.969 with FH535 + Foretinib (first compound 0.4 µM); 0.907 with FH535 + Foretinib (first compound 1.265 µM); 0.584 in the assay with FH535 + Dasatinib (first compound 0.04 µM); 0.619 with FH535 + Dasatinib (first compound 0.1265 µM). Besides, the relative viability with FH535 + Dasatinib (first compound 0.4 µM) was determined as 0.4; with FH535 + Dasatinib (first compound 1.265 µM), 0.36; in the assay with FH535 + Lapatinib (first compound 0.04 µM), 1.21; with FH535 + Lapatinib (first compound 0.1265 µM), 1.08; with FH535 + Lapatinib (first compound 0.4 µM), 1.36; with FH535 + Lapatinib (first compound 1.265 µM), 0.983.

With BEN, the relative viability with FH535 + Navitoclax (first compound 0.04 µM) stood at 0.0691; with FH535 + Navitoclax (first compound 0.1265 µM) it was 0.0603; in the assay with FH535 + Navitoclax (first compound 0.4 µM) it was 0.0578; in the assay with FH535 + Navitoclax (first compound 1.265 µM), 0.0625; with FH535 + Trametinib (first compound 0.04 µM), 0.931; with FH535 + Trametinib (first compound 0.1265 µM) it was 0.99. In addition, the relative viability was 0.948 with FH535 + Trametinib (first compound 0.4 µM); 0.666 with FH535 + Trametinib (first compound 1.265 µM); 0.595 with FH535 + Foretinib (first compound 0.04 µM); 0.932 with FH535 + Foretinib (first compound 0.1265 µM); 0.723 with FH535 + Foretinib (first compound 0.4 µM); 0.328 with FH535 + Foretinib (first compound 1.265 µM). For the same cell line, the relative viability with FH535 + Dasatinib (first compound 0.04 µM) stood at 0.247; with FH535 + Dasatinib (first compound 0.1265 µM), 0.351; with FH535 + Dasatinib (first compound 0.4 µM) it was 0.258; with FH535 + Dasatinib (first compound 1.265 µM), 0.214; with FH535 + Lapatinib (first compound 0.04 µM), 0.678; with FH535 + Lapatinib (first compound 0.1265 µM), 0.674. Moreover, the relative viability was 0.604 in the assay with FH535 + Lapatinib (first compound 0.4 µM) and 0.398 in the assay with FH535 + Lapatinib (first compound 1.265 µM).

With CAL-12T, the relative viability with FH535 + Navitoclax (first compound 0.04 µM) was 1.16; in the assay with FH535 + Navitoclax (first compound 0.1265 µM), 1.11; with FH535 + Navitoclax (first compound 0.4 µM), 1.12; with FH535 + Navitoclax (first compound 1.265 µM) it was 0.654; with FH535 + Trametinib (first compound 0.04 µM), 0.336; with FH535 + Trametinib (first compound 0.1265 µM) it was 0.438. Besides, the relative viability in the assay with FH535 + Trametinib (first compound 0.4 µM) came out at 0.367; in the assay with FH535 + Trametinib (first compound 1.265 µM), 0.347; with FH535 + Foretinib (first compound 0.04 µM) it was 1.15; with FH535 + Foretinib (first compound 0.1265 µM), 1.11; in the assay with FH535 + Foretinib (first compound 0.4 µM) it was 1.04; with FH535 + Foretinib (first compound 1.265 µM), 0.577. Further, the relative viability with FH535 + Dasatinib (first compound 0.04 µM) was 0.361; in the assay with FH535 + Dasatinib (first compound 0.1265 µM) it was 0.417; with FH535 + Dasatinib (first compound 0.4 µM) it was 0.291; with FH535 + Dasatinib (first compound 1.265 µM) it was 0.235; with FH535 + Lapatinib (first compound 0.04 µM), 0.612; with FH535 + Lapatinib (first compound 0.1265 µM), 0.633. Moreover, the relative viability came to 0.726 with FH535 + Lapatinib (first compound 0.4 µM) and 0.476 in the assay with FH535 + Lapatinib (first compound 1.265 µM).

As to COR-L23, the relative viability was determined as 0.992 in the assay with FH535 + Navitoclax (first compound 0.04 µM); 1.14 in the assay with FH535 + Navitoclax (first compound 0.1265 µM); 0.886 with FH535 + Navitoclax (first compound 0.4 µM); 0.567 in the assay with FH535 + Navitoclax (first compound 1.265 µM); 0.52 in the assay with FH535 + Trametinib (first compound 0.04 µM); 0.604 with FH535 + Trametinib (first compound 0.1265 µM). In addition, the relative viability with FH535 + Trametinib (first compound 0.4 µM) was 0.515; with FH535 + Trametinib (first compound 1.265 µM) it was 0.371; with FH535 + Foretinib (first compound 0.04 µM), 0.936; with FH535 + Foretinib (first compound 0.1265 µM), 0.818; with FH535 + Foretinib (first compound 0.4 µM) it was 0.781; with FH535 + Foretinib (first compound 1.265 µM), 0.517. Besides, the relative viability with FH535 + Dasatinib (first compound 0.04 µM) amounted to 0.447; with FH535 + Dasatinib (first compound 0.1265 µM) it was 0.437; in the assay with FH535 + Dasatinib (first compound 0.4 µM) it was 0.38; in the assay with FH535 + Dasatinib (first compound 1.265 µM), 0.222; with FH535 + Lapatinib (first compound 0.04 µM), 0.953; in the assay with FH535 + Lapatinib (first compound 0.1265 µM), 0.958. The relative viability in the assay with FH535 + Lapatinib (first compound 0.4 µM) turned out to be 0.901; with FH535 + Lapatinib (first compound 1.265 µM) it was 0.549.

Turning to COR-L 105, the relative viability worked out at 0.725 with FH535 + Navitoclax (first compound 0.04 µM); 0.864 in the assay with FH535 + Navitoclax (first compound 0.1265 µM); 0.702 in the assay with FH535 + Navitoclax (first compound 0.4 µM); 0.637 in the assay with FH535 + Navitoclax (first compound 1.265 µM); 0.483 in the assay with FH535 + Trametinib (first compound 0.04 µM); 0.404 with FH535 + Trametinib (first compound 0.1265 µM). For the same cell line, the relative viability with FH535 + Trametinib (first compound 0.4 µM) came out at 0.422; with FH535 + Trametinib (first compound 1.265 µM) it was 0.444; with FH535 + Foretinib (first compound 0.04 µM), 0.936; with FH535 + Foretinib (first compound 0.1265 µM) it was 1.25; with FH535 + Foretinib (first compound 0.4 µM), 0.794; with FH535 + Foretinib (first compound 1.265 µM), 1.02. Further, the relative viability came out at 0.292 with FH535 + Dasatinib (first compound 0.04 µM); 0.325 with FH535 + Dasatinib (first compound 0.1265 µM); 0.314 with FH535 + Dasatinib (first compound 0.4 µM); 0.333 with FH535 + Dasatinib (first compound 1.265 µM); 0.274 with FH535 + Lapatinib (first compound 0.04 µM); 0.345 with FH535 + Lapatinib (first compound 0.1265 µM). Besides, the relative viability in the assay with FH535 + Lapatinib (first compound 0.4 µM) is 0.372; with FH535 + Lapatinib (first compound 1.265 µM), 0.398.

In the case of ChaGo-K-1, the relative viability with FH535 + Navitoclax (first compound 0.04 µM) was 0.96; with FH535 + Navitoclax (first compound 0.1265 µM) it was 1.35; with FH535 + Navitoclax (first compound 0.4 µM) it was 1.04; with FH535 + Navitoclax (first compound 1.265 µM), 0.636; with FH535 + Trametinib (first compound 0.04 µM) it was 0.871; in the assay with FH535 + Trametinib (first compound 0.1265 µM), 0.896. Also, the relative viability came to 0.742 with FH535 + Trametinib (first compound 0.4 µM); 0.503 with FH535 + Trametinib (first compound 1.265 µM); 0.916 with FH535 + Foretinib (first compound 0.04 µM); 1.05 in the assay with FH535 + Foretinib (first compound 0.1265 µM); 0.967 with FH535 + Foretinib (first compound 0.4 µM); 0.722 with FH535 + Foretinib (first compound 1.265 µM). Besides, the relative viability in the assay with FH535 + Dasatinib (first compound 0.04 µM) was found to be 0.581; with FH535 + Dasatinib (first compound 0.1265 µM), 0.563; with FH535 + Dasatinib (first compound 0.4 µM), 0.54; with FH535 + Dasatinib (first compound 1.265 µM), 0.563.
